Reference: patent publication US11795151B2, “Benzotriazole compound” (MIYOSHI OIL & FAT CO., LTD., priority 2017, dated 2023)

How the values were obtained:
Assay type in all cases: physicochemical
[1] = Maximum solubility in various monomers; conditions: room temperature (20 to 30° C.), 4 hours
[2] = Evaluation of UV absorption performance (1): absorbance spectra in chloroform; conditions: 100 μM; for Absorbance at absorption peak in wavelength region of 350 to 390 nm / Absorbance at peak end / Absorption wavelength at peak end / Molar extinction coefficient at peak (maximum molar extinction coefficient: εmax) / Wave length at absorption peak in wavelength region of 350 to 390 nm (maximum absorption wavelength: λmax): 10-mm quartz cell; for Absolute value of slope of absorption peak on long wavelength side in wavelength region of 350 to 390 nm: Equation 2
Method: Compounds 1 to 12 were diluted with 100 μM of chloroform, placed in a 10-mm quartz cell, and the absorbance spectra were measured using an ultraviolet-visible spectrophotometer (V-550, manufactured by JASCO Corporation)(FIGS. 1 to 12).
The absorption peak (maximum absorption wavelength: λmax) and absorbance in the wavelength range of 350 to 390 nm were read from the absorption spectra of Compounds 1 to 12, and the molar extinction coefficient of the peak (maximum molar extinction coefficient: εmax) was obtained by the following equation (able 1). Molar extinction coefficient:εmax(L/(mol·cm))=A:Absorbance/[c:Mol concentration(mol/L)×1:Cell optical length(cm)] [Equation 1]
In addition, from the absorption spectra of Compounds 1 to 12, assuming that an intersection of a long-wavelength side absorption spectrum in the absorption peak at 350 to 390 nm and a baseline (a line where the slope of the absorption spectrum at 380 to 500 nm is zero) is set as a […] (for example: FIG. 1), the absolute value of the slope of the absorption peak on the long-wavelength side in the wavelength region at 350 to 390 nm was obtained by the following equation: |Slope of absorption peak on long wavelength side in wavelength region of 350 to 390 nm|=|(Absorbance at peak end−Absorbance at absorption peak in wavelength region of 350 to 390 nm)/(Absorption wavelength at peak end−Wave length at absorption peak in wavelength region of 350 to 390 nm)| [Equation 2]

[3] = Maximum solubility in various monomers; conditions: acrylonitrile as a vinyl-based monomer; same evaluation method
Source text: With the same evaluation method, 2 wt % of Compound 1, 5 wt % of Compound 2, 5 wt % of Compound 3, and 1 wt % of Compound 4 were each soluble in acrylonitrile as a vinyl-based monomer as well.

[4] = Evaluation of 5% weight reduction temperature (1) (TG/DTA); conditions: temperature increasing rate 10° C./min, 25° C. to 550° C.
Method: Compounds 1 to 8 and 10 to 12 were measured using a differential thermogravimetric simultaneous measurement device (TG/DTA6200, manufactured by SII Corporation) at a temperature increasing rate of 10° C./min and within a measurement range of 25° C. to 550° C., and the temperature at which 5 wt % reduction as the weight change (TG) took place was read (Table 6).

[5] = Evaluation of UV absorption performance (2): absorbance spectra in chloroform; conditions: 100 μM
Method: Compounds 11 to 28 were diluted with 100 μM of chloroform and placed in a 10-mm quartz cell, and the absorbance spectra were measured using an ultraviolet-visible spectrophotometer (V-550, manufactured by JASCO Corporation)(FIGS. 11,12,14 to 29).
The absorption peak (maximum absorption wavelength: max) and absorbance in the wavelength range of 350 to 390 nm were read from the absorption spectra of Compounds 11 to 28, and a molar extinction coefficient (maximum molar extinction coefficient: εmax) of the peak was obtained by the following formula (Table 7): Molar extinction coefficient:εmax(L/(mol·cm))=A:Absorbance/[c:Mol concentration(mol/L)×1:Cell optical length(cm)] [Equation 3]
In addition, from the absorption spectra of Compounds 11 to 28, assuming that an intersection of a long-wavelength side absorption spectrum in the absorption peak at 350 to 390 nm and a baseline (a line where the slope of the absorption spectrum at […] is zero) is set as a peak end (for example: FIG. 1), the absolute value of the slope of the absorption peak on the long-wavelength side in the wavelength region at 350 to 390 nm was obtained by the following equation (Table 8): |Slope of absorption peak on long wavelength side in wavelength region of 350 to 390n|=|(Absorbance at peak end−Absorbance at absorption peak in wavelength region of 350 to 390 nm)/(Absorption wavelength at peak end−Wave length at absorption peak in wavelength region of 350 to 390 nm)| [Equation 4]

SMILES	Maximum solubility ([1]; Dimethylacrylamide) [wt %]	Maximum solubility ([1]; Hexadiene) [wt %]	Maximum solubility ([1]; Methyl (meth)acrylate) [wt %]	Maximum solubility ([1]; Styrene) [wt %]	Maximum solubility ([1]; Vinyl acetate) [wt %]	Absorbance at absorption peak in wavelength region of 350 to 390 nm [2]	Absorbance at peak end [2]	Absorption wavelength at peak end [2] [nm]	Molar extinction coefficient at peak (maximum molar extinction coefficient: εmax) [2] [L/mol/cm]	Wave length at absorption peak in wavelength region of 350 to 390 nm (maximum absorption wavelength: λmax) [2] [nm]	Concentration soluble in acrylonitrile [3] [wt %]	5% weight reduction temperature [4] [°C]	Absolute value of slope of absorption peak on long wavelength side in wavelength region of 350 to 390 nm [2]	Absorbance at absoprtion peak in wavelength region of 350 to 390 nm ([5]; 10-mm quartz cell)	Absorbance at peak end ([5]; 10-mm quartz cell)	Absorption wavelength at peak end ([5]; 10-mm quartz cell) [nm]	Molar extinction coefficient at peak (maximum molar extinction coefficient: εmax) ([5]; 10-mm quartz cell) [L/mol/cm]	Wave length at absorption peak in wavelength region of 350 to 390 nm (maximum absorption wavelength: λmax) ([5]; 10-mm quartz cell) [nm]	Absolute value of slope of absorption peak on long wavelength side in wavelength region of 350 to 390 nm ([5]; Equation 4)
C=CC(=O)OCCCCCCSc1ccc2nn(-c3cc(C)cc(C(C)(C)C)c3O)nc2c1 [Compound 1]	20	10	20	25	15	2.26	0.00766	422	22600	368	2	–	–	–	–	–	–	–	–
C=C(C)C(=O)OCCSc1ccc2nn(-c3cc(C)cc(C(C)(C)C)c3O)nc2c1 [Compound 2]	15	3	20	25	15	2.25	0.00727	421	21400	365	5	285	–	–	–	–	–	–	–
C=C(C)C(=O)OCCCSc1ccc2nn(-c3cc(C)cc(C(C)(C)C)c3O)nc2c1 [Compound 3]	11	5	20	25	12	2.18	0.00692	419	21600	367	5	292	–	–	–	–	–	–	–
C=C(C)C(=O)OCCCCCCSc1ccc2nn(-c3cc(C)cc(C(C)(C)C)c3O)nc2c1 [Compound 4]	–	–	12	25	–	2.24	0.00762	420	22400	368	1	–	–	–	–	–	–	–	–
C=C(C)C(=O)Oc1ccc(Sc2ccc3nn(-c4cc(C)cc(C(C)(C)C)c4O)nc3c2)cc1 [Compound 5]	15	5	15	25	13	2.29	0.01022	422	21800	367	–	–	–	–	–	–	–	–	–
C=C(C)C(=O)OCCCCCCOc1ccc(Sc2ccc3nn(-c4cc(C)cc(C(C)(C)C)c4O)nc3c2)cc1 [Compound 6]	15	10	20	25	15	2.27	0.01184	424	21600	369	–	–	–	–	–	–	–	–	–
C/C=C/C(=O)OCCCCCCSc1ccc2nn(-c3cc(C)cc(C(C)(C)C)c3O)nc2c1 [Compound 7]	–	–	–	–	–	2.19	0.00728	422	21900	368	–	304	–	–	–	–	–	–	–
C=CCSc1ccc2nn(-c3cc(C)cc(C(C)(C)C)c3O)nc2c1 [Compound 10, reference compound]	≤9	1	≤10	≤20	≤10	1.76	0.00722	430	17600	375	–	252	0.032	–	–	–	–	–	–
C=C(C)C(=O)OCCc1ccc(O)c(-n2nc3ccccc3n2)c1 [Compound 11, reference compound]	10	2	11	21	11	1.83	0.0069	388	18300	341	–	249	0.038	1.83	0.0069	388	18300	341	0.038
